# Read-outs that look alike come from different tables or passages of the source.
# Legend:
# S. epidermis = conditions: cited from earlier work
# Candida albicans = conditions: oral isolate, human buccal epithelial cells; concentration dependent; cited from earlier work
# E. coli [1] = conditions: urine isolate, human uroepithelial cells; concentration dependent; cited from earlier work
# [2] = Long term stability of taurolidine in solution; format: physicochemical; conditions: citric acid and sodium citrate buffer, compared with PVP solutions
# Source text: In addition, citric acid is a known antioxidant. The buffer system created by adjustment of pH using sodium hydroxide also resists changes in the pH due to the oxidation of formaldehyde to formic acid.
# whole blood = assay: Clotting of whole pig blood mixed with taurolidine solution with or without ACD-A; conditions: pig blood filled to 30 mL, inspected after 30 minutes
# Protocol: A 0.5% solution of taurolidine in Ringer-lactate solution (Thomae, Biberach, Germany) was introduced into each of four polyethylene bottles having a 30 mL volume. Filling volumes were 5, 10, and 15 mL. One bottle was filled with 5 mL of the taurolidine solution and 2 mL ACD-A (Fresenius, Bad Homburg, Germany) solution. ACD-A solution is used for the conservation of whole blood and contains per liter: 22.0 grams of sodium citrate dihydrate, 7.3 grams of citric acid and 34.5 grams of glucose monohydrate.
# Blood was collected at the slaughter house from a female pig directly from the slaughter wound into the containers that were then filled up to the 30 mL level. The containers were capped and gently moved to mix blood with the solution. The containers were inspected after 30 minutes. Blood in the containers containing only taurolidine was clotted, but the blood in the container containing the mixture of taurolidine and ACD-A was not clotted.
# B. fragilis = conditions: 0.2 mL of 20% solution in 5% polyvinyl pyrrolidone intravenous; B. fragilis intraperitoneal; cited from earlier work
# [3] = mouse, in vivo; cited from earlier work
# [4] = system: Staphylococcus Aureus (VISA, MRSA); conditions: pH 7.0 to pH 5.0; cited from earlier work
# E. coli [5] = conditions: 0.2 mL of 20% solution in 5% polyvinyl pyrrolidone intravenous; E. coli intraperitoneal; cited from earlier work
# [6] = clinical and bacteriologic outcomes, endotoxemia, organ failure, 28-day mortality; cited from earlier work
# [7] = mice; cited from earlier work
compound,measurement,setting,value
CN[C@H](CC(C)C)C(=O)N[C@H]1C(=O)N[C@@H](CC(N)=O)C(=O)N[C@H]2C(=O)N[C@H]3C(=O)N[C@H](C(=O)N[C@H](C(=O)O)c4cc(O)cc(O)c4-c4cc3ccc4O)[C@H](O)c3ccc(c(Cl)c3)Oc3cc2cc(c3O[C@@H]2O[C@H](CO)[C@@H](O)[C@H](O)[C@H]2O[C@H]2C[C@](C)(N)[C@H](O)[C@H](C)O2)Oc2ccc(cc2Cl)[C@H]1O [Vancomycin],Bactericidal concentration,S. epidermis; initial inocula 10^3 CFU/mL,6.7 µg/mL
[H]/N=C(\N/C(=N/[H])NCCCCCCNC(=N)NC(=N)Nc1ccc(Cl)cc1)Nc1ccc(Cl)cc1 [chlorhexidine],Anti-adherence activity,Candida albicans,significant
same,Anti-adherence activity,E. coli [1],significant
"O=C(O)CN(CCN(CC(=O)O)CC(=O)O)CC(=O)O [disodium EDTA, ethylenediaminetetraacetic acid]",Bactericidal concentration,"S. epidermis; initial inoculum 10^3 CFU per mL, in 24 hours",20000 µg/mL
"O=S1(=O)CCN(CN2CCS(=O)(=O)NC2)CN1 [taurolidine, bis-(1,1-dioxo-perhydroxy-1,2,4-thiadiazin-4-yl)methane]",Stability of taurolidine in solution,[2],increases the stability
same,Anti-adherence activity,Candida albicans,significant
same,Blood clotting on inspection,whole blood,clotted
same,Anti-adherence activity,E. coli [1],significant
same,Mortality rate,B. fragilis,very significantly reduce the mortality rate
same,Teratogenicity,[3],non-teratogenic
same,Dependence of activity on pH,[4],increases with decreasing pH
same,Mortality rate,E. coli [5],very significantly reduce the mortality rate
same,Therapeutic effect on outcome,[6],no beneficial therapeutic effect
same,Intraperitoneal LD50,[7],~1500 mg/kg
same,Taurolidine solubility believed reachable,"additional citric acid, without polyol or PVP",5%
same,Taurolidine in solution achieved,"approximately 2.6% by weight citric acid, no PVP or polyol, pH 5.2 to 5.3",4.0 weight percent
heparin,Inhibition of growth,S. epidermis; isolate from catheter of infected patient,does not inhibit the growth
povidone-iodine,Anti-adherence activity,Candida albicans,significant
same,Anti-adherence activity,E. coli [1],significant

# — patent US6423706B1, “Antimicrobial locks comprising taurinamide derivatives and carboxylic acids and/or salts thereof” (Biolink Corporation, priority 1998, dated 2002)
